Laboratory results reported in patent publication US20250197379A1 (KHR Biotec GmbH, priority 2021, published 2025).

Legend:
elF4A1 = target: T1, elF4A1 (Homo sapiens, UniProt P60842); assay: Dual luciferase assay for cap dependent translation initiation (eIF4A); conditions: Biochemical and cell based activity
T1 construct: endogenous in cells; host or cells: HeLa
Experimental: Dual luciferase assay for Cap-dependent translation initiation was performed in HeLa cells transfected with pFR_HCV_xb. […] After incubation, Dual luciferase reporter assay was performed according to the manufacturer's instruction and the luminescence was measured using a multiplate reader. Data were normalized to cells transfected with the indicated mutant and exposed to DMSO for 24 h. DMSO-treated cells were set as 1. The bars represent mean±SD from 3 independent experiments. The dot plot indicate the value from each experiment.

In vitro DMPK: CLi Human = format: in vitro ADME
KRAS G12V = target: T2, KRAS G12V (Homo sapiens, UniProt P01116, G12V); assay: NanoBiT assay for RAS activation (KRAS G12V); conditions: Biochemical and cell based activity
T2 construct: K, N and HRAS G12V (full length) was cloned with Xho I and Bgl I to LgBit; expressed in transfected cells; host or cells: HeLa
T2 sequence (P01116 1-188 isoform P01116-2 G12V): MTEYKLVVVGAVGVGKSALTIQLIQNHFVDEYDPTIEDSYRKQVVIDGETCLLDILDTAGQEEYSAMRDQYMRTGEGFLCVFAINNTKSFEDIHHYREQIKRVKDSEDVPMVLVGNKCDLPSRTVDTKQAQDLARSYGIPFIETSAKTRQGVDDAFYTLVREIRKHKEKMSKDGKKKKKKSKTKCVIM
Experimental: N-terminal LgBiT and C-terminal SmBiT construct was purchased from Promega and K, N and HRAS G12V (full length) was cloned with Xho I and Bgl I to LgBit and CRAF Ras binding domain (1-149) was cloned with EcoRI and Bgl II to SmBit. For transfections, 1 μg or 2 μg of (12 well/6 well) plasmids were transfected into cells with 0.5 mM of PEI reagent in 100 μl or 200 μl PBS. One day after transfection, cells were harvested and seeded into 96 well white plates (Greiner) or 384 well white plate (Greiner). After an additional day the medium was changed to serum free DMEM and the cells were incubated for 2 h with the compounds according to the invention. NanoGlo assay was performed according to the manufacturer's instructions. The luminescence was measured using Tecan infinite (Tecan).

T1 sequence (P60842 whole entry): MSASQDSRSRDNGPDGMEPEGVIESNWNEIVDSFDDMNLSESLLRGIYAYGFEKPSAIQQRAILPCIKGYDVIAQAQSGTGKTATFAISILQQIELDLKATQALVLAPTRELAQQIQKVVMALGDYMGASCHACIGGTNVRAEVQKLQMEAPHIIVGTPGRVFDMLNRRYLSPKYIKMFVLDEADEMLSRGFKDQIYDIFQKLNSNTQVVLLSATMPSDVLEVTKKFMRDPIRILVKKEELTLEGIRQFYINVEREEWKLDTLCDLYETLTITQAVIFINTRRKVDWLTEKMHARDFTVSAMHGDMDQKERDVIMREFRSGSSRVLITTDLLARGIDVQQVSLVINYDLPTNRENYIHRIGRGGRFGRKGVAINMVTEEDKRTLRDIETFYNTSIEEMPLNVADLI

| Structure (SMILES) | IC50 (elF4A1) [nM] | CLi Human (In vitro DMPK: CLi Human) [µL/min/mg] | IC50 (KRAS G12V) [nM] |
| --- | --- | --- | --- |
| COc1cc(OC)c2c(c1)O[C@@]1(c3ccc(Cl)cc3)[C@H](c3cccc(F)c3)C[C@H](NC(=O)NC(C)C)[C@@]21O (single isomer, unassigned) [Compound 8] | 120 | 31 | 78 |
| COc1cc(OC)c2c(c1)O[C@@]1(c3ccc(Cl)cc3)[C@H](c3cccc(F)c3)C[C@H](NC(=O)N3CCOCC3)[C@@]21O [Compound 19] | 80 |  | 58 |
| COc1cc(OC)c2c(c1)O[C@@]1(c3ccc(C#N)cc3)[C@H](c3cccc(F)c3)C[C@H](NC(=O)N3CCOCC3)[C@@]21O [Compound 37] | 24 | 64 | 19 |
| COc1cc(OC)c2c(c1)O[C@@]1(c3ccc(Cl)cc3)[C@H](c3cccc(F)c3)C[C@H](NC(=O)N3CCS(=O)(=O)CC3)[C@@]21O [Compound 39] | 39 |  | 32 |
| COc1cc(OC)c2c(c1)OC1(c3ccc(Cl)cc3)[C@@H](c3cccc(F)c3)CC(NC(=O)N(C)C)C21O (single isomer, unassigned) [Compound C2, reference compound] | 63 | 290 | 55 |
| COc1cc(OC)c2c(c1)O[C@@]1(c3ccc(Cl)cc3)[C@H](c3cccc(F)c3)C[C@H](NC(=O)N3CCC(N(C)C)CC3)[C@@]21O [Compound 40] | 143 |  | 97 |
| COc1cc(OC)c2c(c1)O[C@@]1(c3ccc(Cl)cc3)[C@H](c3cccc(F)c3)C[C@H](NC(=O)N3CCN(C)CC3)[C@@]21O (single isomer, unassigned) [Compound 2] | 84 | 5.5 | 79 |
| COc1cc(OC)c2c(c1)O[C@@]1(c3ccc(Cl)cc3)[C@H](c3cccc(F)c3)C[C@H](NC(=O)N3CC4CCC(C3)N4C)[C@@]21O [Compound 43] | 80 |  | 57 |
| COc1cc(OC)c2c(c1)O[C@@]1(c3ccc(Cl)cc3)[C@H](c3cccc(F)c3)C[C@H](NC(=O)N3CCCC3)[C@@]21O (single isomer, unassigned) [Compound 5] | 60 |  | 95 |
| COc1cc(OC)c2c(c1)O[C@@]1(c3ccc(Cl)cc3)[C@H](c3cccc(F)c3)C[C@H](NC(=O)N3CC(N(C)C)C3)[C@@]21O [Compound 41] | 55 |  | 50 |
| CCN(CC)C(=O)N[C@H]1C[C@@H](c2cccc(F)c2)[C@]2(c3ccc(Cl)cc3)Oc3cc(OC)cc(OC)c3[C@]12O (single isomer, unassigned) [Compound 11] | 75 |  | 94 |
| COc1cc(OC)c2c(c1)O[C@@]1(c3ccc(C#N)cc3)[C@H](c3cccc(F)c3)C[C@H](NC(=O)N3CCC3)[C@@]21O [Compound 36] | 25 |  | 24 |
| COc1cc(OC)c2c(c1)O[C@@]1(c3ccc(C#N)cc3)[C@H](c3cccc(F)c3)C[C@H](NC(=O)N3CCN(C)CC3)[C@@]21O [Compound 38] | 21 |  | 21 |
| COc1cc(OC)c2c(c1)O[C@@]1(c3ccc(C#N)cc3)[C@H](c3cccc(F)c3)C[C@H](NC(=O)N3CC4(COC4)C3)[C@@]21O [Compound 47] | 22 |  | 41 |
| COc1cc(OC)c2c(c1)O[C@@]1(c3ccc(Cl)cc3)[C@H](c3cccc(F)c3)C[C@H](NC(=O)NCCO)[C@@]21O [Compound 42] | 54 |  | 48 |
